From PubChem BioAssay (NCI)
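Results reflect a 48-hour exposure of cells in 96-well plates to compound at five concentrations. TGI marks complete inhibition of growth.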

Tests used:
Experiment in all cases: NCI tumour cell line growth inhibition, 48 h
MOLT-4 leukemia = system: MOLT-4 leukemia
XF 498 CNS = system: XF 498 CNS
KM12 colon = system: KM12 colon
HCT-116 colon = system: HCT-116 colon
786-0 renal = system: 786-0 renal
A498 renal = system: A498 renal
HOP-92 NSCLC = system: HOP-92 NSCLC
SR leukemia = system: SR leukemia
NCI-H460 lung = system: NCI-H460 lung
NCI-H23 lung = system: NCI-H23 lung
HCC-2998 colon = system: HCC-2998 colon
SNB-75 CNS = system: SNB-75 CNS
RXF 393 renal = system: RXF 393 renal
DMS 114 small cell lung = system: DMS 114 small cell lung
CCRF-CEM leukemia = system: CCRF-CEM leukemia
HOP-18 NSCLC = system: HOP-18 NSCLC
MALME-3M melanoma = system: MALME-3M melanoma
SK-MEL-5 melanoma = system: SK-MEL-5 melanoma
LXFL 529 NSCLC = system: LXFL 529 NSCLC
TK-10 renal = system: TK-10 renal
A549 NSCLC = system: A549 NSCLC
K-562 leukemia = system: K-562 leukemia
NCI-H522 lung = system: NCI-H522 lung
UACC-62 melanoma = system: UACC-62 melanoma
EKVX NSCLC = system: EKVX NSCLC
RXF-631 renal = system: RXF-631 renal
KM20L2 colon = system: KM20L2 colon
DLD-1 colon = system: DLD-1 colon
OVCAR-8 ovarian = system: OVCAR-8 ovarian
SF-268 CNS = system: SF-268 CNS
LOX IMVI melanoma = system: LOX IMVI melanoma
SK-OV-3 ovarian = system: SK-OV-3 ovarian
U251 CNS = system: U251 CNS
IGROV1 ovarian = system: IGROV1 ovarian
HT29 colon = system: HT29 colon
NCI-H226 lung = system: NCI-H226 lung
COLO 205 colon = system: COLO 205 colon
HCT-15 colon = system: HCT-15 colon
SK-MEL-2 melanoma = system: SK-MEL-2 melanoma
DMS 273 small cell lung = system: DMS 273 small cell lung
HOP-62 NSCLC = system: HOP-62 NSCLC
M19-MEL melanoma = system: M19-MEL melanoma
SNB-78 CNS = system: SNB-78 CNS
SF-539 CNS = system: SF-539 CNS
RPMI-8226 leukemia = system: RPMI-8226 leukemia
HL-60(TB) leukemia = system: HL-60(TB) leukemia
SW-620 colon = system: SW-620 colon
UACC-257 melanoma = system: UACC-257 melanoma
SN12C renal = system: SN12C renal
OVCAR-5 ovarian = system: OVCAR-5 ovarian
OVCAR-4 ovarian = system: OVCAR-4 ovarian
UO-31 renal = system: UO-31 renal
ACHN renal = system: ACHN renal
SF-295 CNS = system: SF-295 CNS
SNB-19 CNS = system: SNB-19 CNS
CAKI-1 renal = system: CAKI-1 renal
M14 melanoma = system: M14 melanoma
SK-MEL-28 melanoma = system: SK-MEL-28 melanoma
OVCAR-3 ovarian = system: OVCAR-3 ovarian

Measured: TGI

COC(=O)C(/C(=N\NC(N)=S)C(=O)Nc1ccccc1[N+](=O)[O-])c1cnc2ccccc2n1 (centres undefined)
not listed: OVCAR-3 ovarian
> 100 µM: all other assays above

CCOC(=O)C(=O)Nc1ccccc1C(C)C
not listed: RXF 393 renal | LOX IMVI melanoma | SNB-78 CNS
> 100 µM: all other assays above
